According to patent US20210220291A1, “THERAPEUTIC COMPOSITIONS AND METHODS FOR PULMONARY FIBROSIS” (priority 2020, published 2021):

How the values were obtained:
Format in all cases: in vivo, wistar rats
HIF-1α = assay: Bleomycin induced lung fibrosis in rats: HIF-1 alpha in lung tissue homogenate; settings: 14 days; for reduction in HIF-α levels: compared to pulmonary fibrosis control group (138.6 pg/ml); for reduction in HIF-α levels / HIF-α levels: iso-garcinol 10 mg/kg, octahydrocurcumin 150 mg/kg bodyweight, individually and in combination; for HIF-α levels: control group 138.6 pg/ml
Protocol: (§1) After overnight fasting, the wistar rats were anesthetized (60 mg/kg ketamine HCl and 5 mg/kg xylazine) and a midline incision was made in the neck and the trachea was exposed. A tracheal cannula was inserted under direct visualization into the trachea. Pulmonary fibrosis was induced by intratracheal administration of single dose 0.1 mL of bleomycin (5 mg/kg in 0.9% NaCl). Treatment with the test material was given 5 min after administration of bleomycin for 14 consecutive days. After 14 days, BALF (bronchoalveolar lavage fluid) was obtained. Lung tissue was weighed to determine the lung index. Lung homogenate was stored at −80° C. for analysis of bio-markers. (Yildirim A, Ersoy Y, Ercan F et al., “Phosphodiesterase-5 inhibition by sildenafil citrate in a rat model of bleomycin-induced lung fibrosis,” Pulmonary Pharmacol Therap. […]; 23(3):215-221; Chen L, Wang T, Wang X et al., “Blockade of advanced glycation end product formation attenuates bleomycin-induced pulmonary fibrosis in rats,” Respiratory Res. 2009; 10:55; Nergiz et al., The Protective Effect of Naringin against Bleomycin-Induced Pulmonary Fibrosis in Wistar Rats. Pulmonary Med. 2016, 12 p, http://dx.doi.org/10.1155/2016/7601393)
(§2) The lung of the animals was removed and rinsed with ice-cold isotonic saline. To the tissues was added 4 ml/g tissue of extraction buffer containing 1 mM phenylmethylsulfonyl fluoride, 1 mg/ml aprotinin and 0.05% Tween 20 in phosphate buffered saline. Tissues were homogenized on ice with a polytron and the homogenate was centrifuged at 5000 g for 15 min. Aliquots of the supernatant were separated and used for biochemical analysis. Supernatants were stored at −80° C. until cytokine analysis (Pandey et al., Multifunctional neuroprotective effect of Withanone, a compound from Withania somnifera roots in alleviating cognitive dysfunction. Cytokine 102 (2018) 211-221). The levels of HIF-1 alpha, TGF-β, IL-13, IL-1β, TNF-α, CCL-17, osteopontin and mucin in the lung tissue homogenate was determined using methods and protocols already reported in scientific literature.
Different concentration of iso-garcinol (5, 10, 20 mg/kg bodyweight) and octahydrocurcumin were first administered to rats and the effect of the compounds in reducing hypoxia related HIF-α was evaluated. […] Thus, iso-garcinol at 10 mg/kg bodyweight and octahydrocurcumin at 150 mg/kg bodyweight was used for the further combination studies.

TGF-β = assay: Bleomycin induced lung fibrosis in rats: TGF-β in lung tissue homogenate; settings: iso-garcinol 10 mg/kg, octahydrocurcumin 150 mg/kg bodyweight, individually and in combination, 14 days; for reduction in TGF-β levels: compared to pulmonary fibrosis control group (1721 pg/ml); for TGF-β levels: control group 1721 pg/ml
Protocol: as §1, §2

Collagen-I = assay: Bleomycin induced lung fibrosis in rats: collagen 1 levels; settings: iso-garcinol 10 mg/kg p.o., octahydrocurcumin 150 mg/kg, alone and combined; normal control 64.25 ± 4.98, fibrosis control 102.43 ± 3.70
Protocol: (§3) After overnight fasting, the wistar rats were anesthetized (60 mg/kg ketamine HCl and 5 mg/kg xylazine) and a midline incision was made in the neck and the trachea was exposed. A tracheal cannula was inserted under direct visualization into the trachea. Pulmonary fibrosis was induced by intratracheal administration of single dose 0.1 mL of bleomycin (5 mg/kg in 0.9% NaCl). Treatment with the test material was given 5 min after administration of bleomycin for 14 consecutive days. After 14 days, BALF (bronchoalveolar lavage fluid) was obtained. Lung tissue was weighed to determine the lung index. Lung homogenate was stored at −80° C. for analysis of bio-markers. […]
(§4) The lung of the animals was removed and rinsed with ice-cold isotonic saline. […] The levels of HIF-1 alpha, TGF-β, IL-13, IL-1β, TNF-α, CCL-17, osteopontin and mucin in the lung tissue homogenate was determined using methods and protocols already reported in scientific literature.

IL-13 = assay: Bleomycin induced lung fibrosis in rats: IL-13 in lung tissue homogenate; settings: iso-garcinol 10 mg/kg, octahydrocurcumin 150 mg/kg bodyweight, individually and in combination, vs pulmonary fibrosis control (FIG. 4)
Protocol: as §3, §4

TNF-α = assay: Bleomycin induced lung fibrosis in rats: TNF-α in lung tissue homogenate; settings: iso-garcinol 10 mg/kg, octahydrocurcumin 150 mg/kg bodyweight, individually and in combination, vs pulmonary fibrosis control (FIG. 5)
Protocol: as §3, §4

IL-1β = assay: Bleomycin induced lung fibrosis in rats: IL-1β in lung tissue homogenate; settings: iso-garcinol 10 mg/kg, octahydrocurcumin 150 mg/kg bodyweight, individually and in combination, vs pulmonary fibrosis control (FIG. 5)
Protocol: as §3, §4

CCL-17 = assay: Bleomycin induced lung fibrosis in rats: CCL-17 in lung tissue homogenate; settings: iso-garcinol 10 mg/kg, octahydrocurcumin 150 mg/kg bodyweight, individually and in combination, vs pulmonary fibrosis control (FIG. 6)
Protocol: as §3, §4

osteopontin = assay: Bleomycin induced lung fibrosis in rats: osteopontin in lung tissue homogenate; settings: iso-garcinol 10 mg/kg, octahydrocurcumin 150 mg/kg bodyweight, individually and in combination, vs pulmonary fibrosis control (FIG. 7)
Protocol: as §3, §4

MUC 5B = assay: Bleomycin induced lung fibrosis in rats: mucin 5B in lung tissue homogenate; settings: iso-garcinol 10 mg/kg, octahydrocurcumin 150 mg/kg bodyweight, individually and in combination, vs pulmonary fibrosis control (FIG. 8)
Protocol: as §3, §4

[1] = Bleomycin induced lung fibrosis in rats: lung index; settings: (weight of the lung/bodyweight)×100; iso-garcinol 10 mg/kg p.o., octahydrocurcumin 150 mg/kg, alone and combined; normal control 0.75 ± 0.053, fibrosis control 1.39 ± 0.034
Protocol: as §1
Lung index calculated using the below formula
Lung Index=(weight of the lung/bodyweight)×100

CC(C)=CC[C@H]1C[C@@]23C[C@@H](CC=C(C)C)C(C)(C)[C@@](CC=C(C)C)(C(=O)C(C(=O)c4ccc(O)c(O)c4)=C2OC1(C)C)C3=O [iso-garcinol]
reduction of hypoxia related HIF-α (determination of effective dose) (HIF-1α; bleomycin rats, iso-garcinol 5, 10, 20 mg/kg bodyweight and different doses of octahydrocurcumin (FIG. 1)): better reduction of HIF-α at 10 mg/kg bodyweight
reduction in HIF-α levels (HIF-1α): 55%
HIF-α levels (HIF-1α): 61.9 pg/mL
reduction in TGF-β levels (TGF-β): 42.62%
TGF-β levels (TGF-β): 987.5 pg/mL
Collagen-I (Collagen-I): 89.68 ± 3.23 µg/mL
IL-13 levels (IL-13): significantly reduced
TNF-α levels (TNF-α): significantly reduced
IL-1β levels (IL-1β): significantly reduced
CCL-17 levels (CCL-17): reduced
osteopontin levels (osteopontin): reduced
MUC 5B levels (MUC 5B): reduced
Lung index [1]: 1.19 ± 0.035

COc1cc(CCC(O)CC(O)CCc2ccc(O)c(OC)c2)ccc1O (stereo not shown) [octahydrocurcumin]
reduction in HIF-α levels (HIF-1α): 36.6%
HIF-α levels (HIF-1α): 83.7 pg/mL
reduction in TGF-β levels (TGF-β): 28.62%
TGF-β levels (TGF-β): 1228.4 pg/mL
Collagen-I (Collagen-I): 95.56 ± 4.90 µg/mL
Lung index [1]: 1.02 ± 0.045
